Assay results as given in BindingDB's records for patent US20240132503 (Ocumension Therapeutics (Suzhou) Co., 2024).

Target: Tyrosine-protein kinase SYK (Homo sapiens, UniProt P43405)
Assay: In Vitro Evaluation of Inhibitory Activity Against Syk Protein Kinase
Procedure: Test Procedure and Method:(a) Compound dilution and microplate injection1) Compound powder was weighed and dissolved in a specific amount of DMSO at an initial concentration of 10 mM.2) The compound was diluted to have a concentration of 0.74 mM, POD18 was used for microplate injection by 135 nL per well, an initial concentration of the compound was 10 μM, and 11 concentrations and 3-fold descending serial dilution were carried out.(b) Reaction stage of enzyme and substrate1) Preparation of test buffer dilution: 5×HTRF buffer in the kit was diluted to 1×HTRF buffer, and a specified amount of DTT and MgCl2 solution were added for later use.2) A Syk enzyme reaction solution was prepared with 1×HTRF buffer, so that a final reaction concentration of Syk kinase was 0.0156 ng/μL.3) A TK-Substrate-biotin/ATP mixture was prepared, so that a final substrate concentration was controlled to be 0.2 μM. An ATP concentration was controlled to be 2 μM.4) A mutidorp injector was used to add the sample, 5 μL of Syk enzyme solution and TK-Substrate-biotin/ATP mixture were added to each well, and incubated at 23° C. for 1 hour.

IC50: 25 nM
Structure (SMILES): c1cc(N2CCOCC2)ccc1NC1=Nc2ccc(-c3cn[nH]c3)cc2N2CCN=C12 [US20240132503, Compound Crystal form A Compound Formula 1]
